Literature values as cited in patent US11293915B2, “Bio-adhesive gels and methods of use” (Cornell University, priority 2014, dated 2022).

Details: DTT incorporated hydrogels, DTT concentrations up to 70 mM

## O[C@H](CS)[C@H](O)CS (racemic) [DTT, dithiothreitol]
  cytotoxicity: do not cause significant cytotoxicity
